Data: paper PMC7707092, “Discovery and characterization of ORM‐11372, a novel inhibitor of the sodium‐calcium exchanger with positive inotropic activity” (British Journal of Pharmacology, 2020)

Assays:
[1] = system: Na^+/K^+‐ATPase; assay: Radioligand binding selectivity panel (Eurofins Cerep); details: 10 μM
Experimental: (§1) Radioligand binding assays were performed at Eurofins Cerep SA (Celle L'Evescault, France), for testing the inhibition capacity of ORM‐11372 (at 10 μM with two replicates), in over 75 targets. These included receptors (e.g., human A1, A2A, and A3 adenosine receptors; α1 and α2 adrenoceptors; human β1–β3 adrenergic receptors; human D1, D2S, D3, D4.4, and D5 dopamine receptors; EGF and VEGF receptors; human M1–M5 muscarinic ACh receptors; human 5‐HT1A, 5‐HT2A, 5‐HT2B, 5‐HT2C, 5‐HT4e, 5‐HT5A, 5‐HT6, and 5‐HT7 receptors), ion channels (5‐HT3, Ca^2+, ATP‐dependent potassium channel [KATP], voltage‐dependent potassium channel [KV], small‐conductance calcium‐dependent potassium channel [SKCa], Na^+, and Cl^−), and transporters (adenosine, noradrenaline, dopamine, and 5‐HT). Follow‐up functional studies (with five concentrations and two replicates) were performed for 5‐HT2A receptors and noradrenaline transporter. Agonism and antagonism at h5‐HT2A receptors was explored in recombinant HEK 293 cells and intracellular calcium changes were detected using fluorimetry. Noradrenaline uptake was measured by carrying out scintillation counting of [^3H]noradrenaline incorporated into rat hypothalamus synaptosomes.

[2] = target: peripheral benzodiazepine receptor (Rattus norvegicus, UniProt P16257); assay: as above; details: read-out: inhibition of specific ligand binding
Experimental: as §1

[3] = target: T1, 5‐HT2B receptor (Homo sapiens, UniProt P41595); assay: as above; details: read-out: inhibition of specific ligand binding
T1 sequence (P41595 whole entry): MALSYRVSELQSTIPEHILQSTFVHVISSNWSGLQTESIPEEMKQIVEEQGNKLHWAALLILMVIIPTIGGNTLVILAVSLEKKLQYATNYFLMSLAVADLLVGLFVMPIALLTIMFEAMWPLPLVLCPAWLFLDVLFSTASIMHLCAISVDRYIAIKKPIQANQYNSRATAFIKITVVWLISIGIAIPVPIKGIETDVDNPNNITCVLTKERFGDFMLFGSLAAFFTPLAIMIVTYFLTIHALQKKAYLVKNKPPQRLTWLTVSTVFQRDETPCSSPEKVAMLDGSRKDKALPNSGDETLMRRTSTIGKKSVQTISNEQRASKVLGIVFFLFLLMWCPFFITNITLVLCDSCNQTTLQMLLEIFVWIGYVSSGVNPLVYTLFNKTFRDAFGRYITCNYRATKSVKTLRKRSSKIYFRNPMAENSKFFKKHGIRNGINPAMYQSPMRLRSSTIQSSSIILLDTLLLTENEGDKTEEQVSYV
Experimental: as §1

[4] = target: 5‐HT2A receptor (Homo sapiens, UniProt P28223); assay: as above; details: read-out: inhibition of specific ligand binding
5‐HT2A receptor, sequence (P28223 whole entry): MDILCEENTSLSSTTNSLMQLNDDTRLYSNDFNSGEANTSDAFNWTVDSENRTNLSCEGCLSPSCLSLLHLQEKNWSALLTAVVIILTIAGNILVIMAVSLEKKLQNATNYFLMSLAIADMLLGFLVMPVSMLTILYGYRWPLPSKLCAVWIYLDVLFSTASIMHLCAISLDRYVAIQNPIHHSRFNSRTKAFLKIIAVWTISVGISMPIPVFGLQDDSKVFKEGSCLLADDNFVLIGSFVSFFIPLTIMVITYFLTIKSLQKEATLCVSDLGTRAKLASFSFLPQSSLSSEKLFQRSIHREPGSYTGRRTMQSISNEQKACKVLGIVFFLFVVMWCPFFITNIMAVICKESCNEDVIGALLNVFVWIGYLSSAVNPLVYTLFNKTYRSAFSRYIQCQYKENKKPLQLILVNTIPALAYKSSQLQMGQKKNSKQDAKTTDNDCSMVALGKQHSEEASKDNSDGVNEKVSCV
Experimental: as §1

[5] = system: ryanodine receptor; assay: as above; details: 10 μM
Experimental: as §1

[6] = target: noradrenaline transporter (Homo sapiens, UniProt P23975); assay: as above; details: read-out: inhibition of specific ligand binding
noradrenaline transporter, sequence (P23975 whole entry): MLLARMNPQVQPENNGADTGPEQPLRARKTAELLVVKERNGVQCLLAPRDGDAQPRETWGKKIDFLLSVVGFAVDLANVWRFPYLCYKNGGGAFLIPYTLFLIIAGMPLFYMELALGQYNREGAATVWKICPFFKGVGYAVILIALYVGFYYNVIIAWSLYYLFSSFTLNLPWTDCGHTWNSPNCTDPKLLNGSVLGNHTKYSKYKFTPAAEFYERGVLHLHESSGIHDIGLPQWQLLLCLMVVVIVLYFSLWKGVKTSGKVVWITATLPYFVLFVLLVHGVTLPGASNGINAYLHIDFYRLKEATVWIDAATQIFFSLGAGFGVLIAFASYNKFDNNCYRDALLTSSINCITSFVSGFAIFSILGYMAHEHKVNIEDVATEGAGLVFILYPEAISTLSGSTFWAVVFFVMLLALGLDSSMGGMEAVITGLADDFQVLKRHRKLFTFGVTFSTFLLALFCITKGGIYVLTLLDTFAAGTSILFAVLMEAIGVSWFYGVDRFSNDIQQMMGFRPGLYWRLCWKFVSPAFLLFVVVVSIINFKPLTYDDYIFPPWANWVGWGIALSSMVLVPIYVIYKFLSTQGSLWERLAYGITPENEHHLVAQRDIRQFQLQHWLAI
Experimental: as §1

[7] = target: T1, 5‐HT2B receptor; assay: 5‐HT2B agonist and antagonist assay, intracellular calcium in CHO–5‐HT2B cells; assay type: cell-based
From the text: The hERG‐encoded voltage‐dependent potassium channel current (I hERG) cells to be studied were harvested with Detachin solution and either diluted with a volume of CHO cell serum‐free media (supplemented with 100 IU·ml^−1 of penicillin/streptomycin and 25‐mM HEPES) to obtain cells, for which the cell density was ~4 x10^6 cells·ml^−1, or plated on glass coverslips and used on the following 1–2 days. HEK 293 cells were transiently transfected using lipofectamine (Invitrogen, USA), with a human sodium voltage‐gated channel subunit 5 (hSCN5) A (transcript variant 2)‐containing plasmid, in Optimem medium. After a 5‐h incubation period, the transfection medium was replaced with the normal growth medium. The cells were harvested by trypsinization, centrifuged and resuspended in the appropriate extracellular solution for performing studies the next day. CHO–5‐HT2B cells were plated into 96‐well plates on the previous day, at a density of 4 x10^4 cells per well, with a modified version of the growth media.
Changes in the intracellular calcium concentration of CHO–5‐HT2B cells in the probenecid‐R inger were measured, using Fluo‐4 or calcium 3 dyes and the FLEXstation, at 37°C. […]

[8] = target: hERG KV11.1 current (I hERG) (Homo sapiens, UniProt Q12809); assay: KV11.1 channel current (I hERG), manual patch‐clamp, CHO cells; assay type: cell-based
hERG KV11.1 current (I hERG), sequence (Q12809 whole entry): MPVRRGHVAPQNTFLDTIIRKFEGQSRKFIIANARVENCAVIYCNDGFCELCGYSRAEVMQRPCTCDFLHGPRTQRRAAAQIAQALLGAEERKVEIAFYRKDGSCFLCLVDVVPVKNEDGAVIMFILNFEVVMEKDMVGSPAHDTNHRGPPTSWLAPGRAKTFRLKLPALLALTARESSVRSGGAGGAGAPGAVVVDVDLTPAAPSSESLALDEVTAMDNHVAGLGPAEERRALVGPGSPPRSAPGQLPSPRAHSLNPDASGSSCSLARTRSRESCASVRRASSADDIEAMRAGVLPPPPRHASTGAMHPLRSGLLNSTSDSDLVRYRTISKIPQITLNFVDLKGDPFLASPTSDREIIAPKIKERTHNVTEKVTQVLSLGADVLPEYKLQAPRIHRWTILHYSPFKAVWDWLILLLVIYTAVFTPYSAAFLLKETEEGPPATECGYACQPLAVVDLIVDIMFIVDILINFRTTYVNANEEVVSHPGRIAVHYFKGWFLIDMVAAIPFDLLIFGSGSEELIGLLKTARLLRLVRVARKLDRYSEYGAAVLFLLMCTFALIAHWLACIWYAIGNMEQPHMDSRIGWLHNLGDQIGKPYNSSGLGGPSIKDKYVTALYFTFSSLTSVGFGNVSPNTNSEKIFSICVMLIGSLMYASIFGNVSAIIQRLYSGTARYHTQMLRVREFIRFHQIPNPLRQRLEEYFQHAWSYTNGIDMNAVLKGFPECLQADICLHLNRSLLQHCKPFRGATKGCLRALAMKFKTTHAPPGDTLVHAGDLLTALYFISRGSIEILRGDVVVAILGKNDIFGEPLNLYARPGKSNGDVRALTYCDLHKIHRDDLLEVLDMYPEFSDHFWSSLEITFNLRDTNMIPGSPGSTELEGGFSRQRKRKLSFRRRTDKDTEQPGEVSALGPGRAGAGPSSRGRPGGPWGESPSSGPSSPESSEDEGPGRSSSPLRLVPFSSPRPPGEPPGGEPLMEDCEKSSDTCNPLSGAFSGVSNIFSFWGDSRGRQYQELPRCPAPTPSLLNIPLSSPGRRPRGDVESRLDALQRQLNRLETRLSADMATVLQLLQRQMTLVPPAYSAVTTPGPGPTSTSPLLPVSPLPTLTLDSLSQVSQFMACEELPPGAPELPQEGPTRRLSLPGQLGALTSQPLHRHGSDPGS
Experimental: CHO cells stably expressing either hERG1a (KV11.1) channels (KCNH2; RRID:CVCL_H512) or human 5‐HT2B receptors were cultured at 37°C in a 5% CO2/95% air atmosphere in the Ham's Nutrient Mixture F‐12 (HAM F‐12) medium supplemented with 10% FBS (heat inactivated), 100 μg·ml^−1 of hygromycin B (Invitrogen), and 100 μg·ml^−1 of geneticin or 100 IU·ml^−1 of penicillin and 100 IU·ml^−1 of streptomycin, 25‐mM HEPES, 500 μg·ml^−1 of geneticin, and 250 μg·ml^−1 of Zeocin®. Adhered cells were detached using either Detachin® solution or trypsin and replated twice a week. HEK 293 (RRID:CVCL_0045) and IMR‐32 cells (CCL‐127; RRID:CVCL_0346) were cultured similarly but maintained instead in DMEM, supplemented with 10% FBS (heat inactivated), 100 IU·ml^−1 of penicillin and 100 IU·ml^−1 of streptomycin, and 25‐mM HEPES, and in the case of the IMR‐32 cell line, with minimum essential medium (MEM) non‐essential amino acids. IMR‐32 cells are derived from a human neuroblastoma and endogenously express L‐type (CaV1.x) calcium channel (Sher, Gotti, Pandiella, Madeddu, & Clementi, 1988). […]
Values from hERG‐expressing cells (n = 4) were recorded with the standard extracellular solution at the physiological temperature and a pipette solution containing (in mM) 130 KCl, 7 NaCl, 5 EGTA, 1 MgCl2, 5 Na2ATP, and 5 HEPES (pH was set to 7.2 with KOH; osmolarity was adjusted to 290 ± 3 mOsm). […]

Nc1cccc(-c2ccc(CNc3ccc(F)cc3)o2)c1 [ORM‐11372]
inhibition of specific ligand binding [1]: 11%
inhibition at 10 µM [2]: > 50%
inhibition at 10 µM [3]: > 50%
inhibition at 10 µM [4]: > 50%
inhibition of specific ligand binding [5]: 15%
inhibition at 10 µM [6]: > 50%
agonist activity at 5‐HT2B receptors [7]: no agonist activity
inhibition at 10 µM ([7]; 10 μM, evoked by 10‐nM 5‐HT, read-out: inhibition of 5‐HT2B receptor‐mediated increase in intracellular calcium): 38%
safety margin (ratio), I NCX over Kv11.1 current [8]: ≥ 2,000
IC50 ([8]; manual patch‐clamp, physiological temperature): 10 µM
